In paper PMC7137441, “Synthesis, biological evaluation and molecular docking analysis of vaniline–benzylidenehydrazine hybrids as potent tyrosinase inhibitors” (BMC Chemistry, 2020):
Entries after “also recorded” stand apart in the source; their conditions may differ. Read-outs that look alike come from different tables or passages of the source.

What was measured:
mushroom tyrosinase [1] = molecular target: T1, mushroom tyrosinase (Agaricus bisporus, UniProt C7FF04); assay: Mushroom tyrosinase inhibition assay (L-DOPA as substrate); format: biochemical
T1 sequence (C7FF04 1-392): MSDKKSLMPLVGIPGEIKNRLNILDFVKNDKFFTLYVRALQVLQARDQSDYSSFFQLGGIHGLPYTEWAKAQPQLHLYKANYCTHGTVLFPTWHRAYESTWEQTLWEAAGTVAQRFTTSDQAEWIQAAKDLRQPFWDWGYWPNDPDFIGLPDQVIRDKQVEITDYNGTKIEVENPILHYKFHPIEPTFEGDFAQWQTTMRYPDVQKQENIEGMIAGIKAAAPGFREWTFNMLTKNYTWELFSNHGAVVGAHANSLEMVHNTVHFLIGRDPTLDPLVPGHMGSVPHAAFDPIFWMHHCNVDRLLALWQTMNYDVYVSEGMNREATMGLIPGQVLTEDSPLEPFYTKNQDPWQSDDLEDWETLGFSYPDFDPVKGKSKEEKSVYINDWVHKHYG
Description: All test samples were first dissolved in DMSO at 50 mM and diluted to the required concentrations. First, […] of tyrosinase (0.5 mg ml) was mixed with 160 μl of 50 mM phosphate buffer (pH = 6.8) in 96-well microplates and then 10 μl of different concentration of the test sample was added. […] DMSO without test compounds and kojic acid were used as the control and positive control respectively. The tyrosinase activity without inhibitor was defined as 100%. Each concentration was analyzed in three independent experiments run in triplicate.

mushroom tyrosinase [2] = molecular target: T1, mushroom tyrosinase; assay: Kinetic study of tyrosinase inhibition (Lineweaver-Burk plot, L-DOPA as substrate); format: biochemical; conditions: for Vm: L-DOPA 0.25-1 mM
Description: The inhibition constants, Ki, and Vm for tyrosinase inhibitors were determined by fitting the kinetic data to a competitive, noncompetitive, or mixed inhibition model by nonlinear regression analysis using GraphPad Prism.
To determine the inhibition kinetics of vaniline-benzylidenehydrazine a series of experiments were performed. Different concentrations of the 4i (0, 10 and 25 µM) was chosen to get a series of straight lines. Pre-incubation and measurement time were the same as discussed in mushroom tyrosinase inhibition assay protocol. The maximal velocity (Vmax) and the Michaelis constant (Km) of the tyrosinase activity were determined by the Line weaver Burk plot at various concentrations of L-DOPA (0.25, 0.5, 0.75 and 1 mM) as a substrate. The inhibition type of the enzyme was assayed by Line weaver Burk plots of inverse of velocities (1/V) versus inverse of substrate concentrations 1/[S] mM.

[3] = L-DOPA as the substrate, mean ± SEM of three to five independent experiments, read-out: IC50 against tyrosinase enzyme

| SMILES | melting point | IC50 (mushroom tyrosinase [1]; [3]) | Vm (mushroom tyrosinase [2]; 4i at 10 µM) | Vm (mushroom tyrosinase [2]; 4i at 25 µM) | Type of inhibition (mushroom tyrosinase [2]; Lineweaver-Burk plot, 4i at 0, 10 and 25 µM) | IC50 (mushroom tyrosinase [1]) |
| --- | --- | --- | --- | --- | --- | --- |
| COc1cc(C(=O)N/N=C/c2ccc(O)cc2O)ccc1O [Compound 4a, (E)-Nʹ-(2,4-dihydroxybenzylidene)-4-hydroxy-3-methoxybenzohydrazide] | 243 °C | 37.1 ± 1.02 µM | – | – | – | – |
| COc1cc(C(=O)N/N=C/c2ccc(O)cc2)ccc1O [Compound 4b, (E)-4-hydroxy-Nʹ-(4-hydroxybenzylidene)-3-methoxybenzohydrazide] | 256 °C | 15.2 ± 1.34 µM | – | – | – | – |
| COc1ccc(/C=N/NC(=O)c2ccc(O)c(OC)c2)cc1 [Compound 4c, (E)-4-hydroxy-3-methoxy-Nʹ-(4-methoxybenzylidene)benzohydrazide] | 110 °C | 35.6 ± 2.8 µM | – | – | – | – |
| COc1cc(C(=O)N/N=C/c2ccc(OC)c(OC)c2)ccc1O [Compound 4d, (E)-Nʹ-(3,4-dimethoxybenzylidene)-4-hydroxy-3-methoxy benzohydrazide] | 231 °C | 20.9 ± 2.09 µM | – | – | – | – |
| COc1cc(C(=O)N/N=C/c2ccc(Br)cc2)ccc1O [Compound 4e, (E)-Nʹ-(4-bromobenzylidene)-4-hydroxy-3-methoxybenzohydrazide] | 115 °C | 1.95 ± 2.34 µM | – | – | – | – |
| COc1cc(C(=O)N/N=C/c2ccc([N+](=O)[O-])cc2)ccc1O [Compound 4f, (E)-4-hydroxy-3-methoxy-Nʹ-(4-nitrobenzylidene)benzohydrazide] | 195 °C | 29.1 ± 0.89 µM | – | – | – | – |
| COc1cc(C(=O)N/N=C/c2cc(OC)c(O)c(OC)c2)ccc1O [Compound 4g, (E)-4-hydroxy-Nʹ-(4-hydroxy-3,5-dimethoxybenzylidene)-3-methoxy benzohydrazide] | 151 °C | 4.58 µM | – | – | – | – |
| COc1ccc(/C=N/NC(=O)c2ccc(O)c(OC)c2)cc1O [Compound 4h, (E)-4-hydroxy-Nʹ-(3-hydroxy-4-methoxybenzylidene)-3-methoxybenzohydrazide] | 98 °C | 10 ± 1.6 µM | – | – | – | – |
| CCOc1cc(/C=N/NC(=O)c2ccc(O)c(OC)c2)ccc1O [Compound 4i, (E)-Nʹ-(3-ethoxy-4-hydroxybenzylidene)-4-hydroxy-3-methoxybenzohydrazide] | – | – | 0.18 OD/Min | 0.17 OD/Min | uncompetitive inhibition; also recorded: uncompetitive inhibitor | 1.58 µM |
| COc1cc(C(=O)N/N=C/c2ccccc2[N+](=O)[O-])ccc1O [Compound 4j, (E)-4-hydroxy-3-methoxy-Nʹ-(2-nitrobenzylidene)benzohydrazide] | 151 °C | 17 ± 2.03 µM | – | – | – | – |
| COc1cc(C(=O)N/N=C/c2cccc([N+](=O)[O-])c2)ccc1O [Compound 4k, (E)-4-hydroxy-3-methoxy-Nʹ-(3-nitrobenzylidene)benzohydrazide] | 151 °C | 5.84 ± 1.9 µM | – | – | – | – |
